What follows are molecules tested against PIK3CD (Human) (UniProt O00329) (assay: Inhibition of PIK3CD Kinase Activity).
PIK3CD (Human), sequence (O00329 whole entry, looked up): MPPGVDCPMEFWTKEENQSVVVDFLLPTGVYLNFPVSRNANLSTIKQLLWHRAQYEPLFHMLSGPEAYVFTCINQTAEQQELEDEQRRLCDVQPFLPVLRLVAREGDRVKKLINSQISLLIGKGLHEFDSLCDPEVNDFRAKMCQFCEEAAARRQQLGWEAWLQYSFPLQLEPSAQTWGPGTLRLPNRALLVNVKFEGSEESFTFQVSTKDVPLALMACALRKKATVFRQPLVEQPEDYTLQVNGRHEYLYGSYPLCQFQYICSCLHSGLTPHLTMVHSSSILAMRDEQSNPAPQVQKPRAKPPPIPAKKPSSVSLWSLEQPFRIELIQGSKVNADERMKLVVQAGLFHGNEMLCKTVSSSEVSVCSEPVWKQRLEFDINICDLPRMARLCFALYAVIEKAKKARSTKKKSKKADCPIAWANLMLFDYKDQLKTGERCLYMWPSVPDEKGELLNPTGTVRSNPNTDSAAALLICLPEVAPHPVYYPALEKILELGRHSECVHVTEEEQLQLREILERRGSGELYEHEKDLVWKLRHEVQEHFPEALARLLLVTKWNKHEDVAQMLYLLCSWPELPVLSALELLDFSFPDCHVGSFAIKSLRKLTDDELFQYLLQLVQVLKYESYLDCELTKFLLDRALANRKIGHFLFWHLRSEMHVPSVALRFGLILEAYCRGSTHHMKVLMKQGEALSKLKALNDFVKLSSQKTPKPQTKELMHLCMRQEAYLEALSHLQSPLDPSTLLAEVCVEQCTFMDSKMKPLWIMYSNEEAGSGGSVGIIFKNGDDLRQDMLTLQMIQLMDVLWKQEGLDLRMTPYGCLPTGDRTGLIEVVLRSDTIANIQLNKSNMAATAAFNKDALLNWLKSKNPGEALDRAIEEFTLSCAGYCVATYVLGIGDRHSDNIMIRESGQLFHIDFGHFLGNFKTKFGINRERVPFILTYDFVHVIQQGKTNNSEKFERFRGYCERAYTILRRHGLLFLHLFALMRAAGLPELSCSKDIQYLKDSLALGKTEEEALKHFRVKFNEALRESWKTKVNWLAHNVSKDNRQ

Row | IC50 | Compound
1 | < 500 nM | CCn1c(CN2CCC(N3CCOC3=O)CC2)nc2c(N3CCOCC3)nc(-c3cccc4[nH]ccc34)nc21
2 | < 500 nM | CCn1c(CN2CCOC(C)(C)C2)nc2c(N3CCOCC3)nc(-c3cccc4[nH]ccc34)nc21
3 | < 500 nM | CCn1c(CN2CCC(N3CCC3)CC2)nc2c(N3CCOCC3)nc(-c3c(F)ccc4[nH]ccc34)nc21
4 | < 500 nM | CCn1c(CN2CCC(N3CC(F)C3)CC2)nc2c(N3CCOCC3)nc(-c3cccc4[nH]ccc34)nc21
5 | < 500 nM | CCn1c(CN2CCc3ccccc3C2)nc2c(N3CCOCC3)nc(-c3c(F)ccc4[nH]ccc34)nc21
6 | < 500 nM | CCn1c(CN2CCC(N3CC(F)C3)CC2)nc2c(N3CCOCC3)nc(-c3c(F)ccc4[nH]ccc34)nc21
7 | < 500 nM | CCn1c(CN2CCC3(CC2)CNC(=O)CO3)nc2c(N3CCOCC3)nc(-c3c(F)ccc4[nH]ccc34)nc21
8 | < 500 nM | CCn1c(CN2CCC(N3CCC3=O)CC2)nc2c(N3CCOCC3)nc(-c3c(F)ccc4[nH]ccc34)nc21
9 | < 500 nM | CC(C)(C(N)=O)N1CCN(Cc2nc3c(N4CCOCC4)nc(-c4cccc5[nH]ccc45)nc3[nH]2)CC1
10 | < 500 nM | CCn1c(CN2CC(=O)NC(C)(C)C2)nc2c(N3CCOCC3)nc(-c3c(F)ccc4[nH]ccc34)nc21
11 | < 500 nM | CCn1c(CN2CCN(C3CCOCC3)CC2)nc2c(N3CCOCC3)nc(-c3c(F)ccc4[nH]ccc34)nc21
12 | < 500 nM | CCn1c(CN2CCN(C(C)(C)C(N)=O)CC2)nc2c(N3CCOCC3)nc(-c3cccc4[nH]ccc34)nc21
13 | < 500 nM | CCn1c(CN2CCN(C(C)C)C(=O)C2)nc2c(N3CCOCC3)nc(-c3cccc4[nH]ccc34)nc21
14 | < 500 nM | CCn1c(CN2CCC(c3cc[nH]n3)CC2)nc2c(N3CCOCC3)nc(-c3cccc4[nH]ccc34)nc21
15 | < 500 nM | CCn1c(CN2CCN(CC(N)=O)C(C)(C)C2)nc2c(N3CCOCC3)nc(-c3cccc4[nH]ccc34)nc21
16 | < 500 nM | CCn1c(CN2CCN(CC(F)(F)F)CC2)nc2c(N3CCOCC3)nc(-c3cccc4[nH]ccc34)nc21
17 | < 500 nM | Cn1c(CN2CCN(C(C)(C)C(N)=O)CC2)nc2c(N3CCOCC3)nc(-c3cccc4[nH]ccc34)nc21
18 | < 500 nM | CCn1c(CN2CC3COCC(C2)N3)nc2c(N3CCOCC3)nc(-c3c(F)ccc4[nH]ccc34)nc21
19 | < 500 nM | CCn1c(CN2CCC(N3CC(F)(F)C3)CC2)nc2c(N3CCOCC3)nc(-c3cccc4[nH]ccc34)nc21
20 | < 500 nM | CCn1c(CN2CCOC(C)(C)C2)nc2c(N3CCOCC3)nc(-c3c(F)ccc4[nH]ccc34)nc21
21 | < 500 nM | CCn1c(CN2CCC(N(C)C)CC2)nc2c(N3CCOCC3)nc(-c3c(F)ccc4[nH]ccc34)nc21
22 | < 500 nM | CCn1c(CN2CCC(C(=O)O)CC2)nc2c(N3CCOCC3)nc(-c3c(F)ccc4[nH]ccc34)nc21
23 | < 500 nM | CN(C)C1CCN(Cc2nc3c(N4CCOCC4)nc(-c4cccc5[nH]ccc45)nc3[nH]2)CC1
24 | < 500 nM | CCn1c(CN2CCC(N3CCOCC3)CC2)nc2c(N3CCOCC3)nc(-c3c(F)ccc4[nH]ccc34)nc21
25 | < 500 nM | CCn1c(CN2CCC(N3CC(F)(F)C3)CC2)nc2c(N3CCOCC3)nc(-c3c(F)ccc4[nH]ccc34)nc21
26 | < 500 nM | CCn1c(CN2CCN(CC(N)=O)[C@@H](C(C)C)C2)nc2c(N3CCOCC3)nc(-c3cccc4[nH]ccc34)nc21
27 | < 500 nM | CCn1c(CN2C[C@@H](C)N(CC(N)=O)[C@@H](C)C2)nc2c(N3CCOCC3)nc(-c3cccc4[nH]ccc34)nc21

Row | IC50 | Compound
28 | < 500 nM | CCn1c(CN2CCC(N(C)C)CC2)nc2c(N3CCOCC3)nc(-c3cccc4[nH]ccc34)nc21
29 | < 500 nM | CCn1c(CN2CC(N3CCOCC3)C2)nc2c(N3CCOCC3)nc(-c3cccc4[nH]ccc34)nc21
30 | < 500 nM | CCn1c(CN2CCN(C3CCS(=O)(=O)CC3)CC2)nc2c(N3CCOCC3)nc(-c3cccc4[nH]ccc34)nc21
31 | < 500 nM | CCn1c(CN2CCC(C(=O)O)(N3CCOCC3)CC2)nc2c(N3CCOCC3)nc(-c3c(F)ccc4[nH]ccc34)nc21
32 | < 500 nM | CCn1c(CN2CCN(C(C)(C)C(N)=O)CC2)nc2c(N3CCOCC3)nc(-c3c(F)ccc4[nH]ccc34)nc21
33 | < 500 nM | CCn1c(CN2CCc3ccccc3C2)nc2c(N3CCOCC3)nc(-c3cccc4[nH]ccc34)nc21
34 | < 500 nM | CCn1c(CN2CCC3(CC2)CNC(=O)C3)nc2c(N3CCOCC3)nc(-c3c(F)ccc4[nH]ccc34)nc21
35 | < 500 nM | CCn1c(CN2CC(=O)NC(C)(C)C2)nc2c(N3CCOCC3)nc(-c3cccc4[nH]ccc34)nc21
36 | < 500 nM | CCn1c(CN2CCN3C(=O)COC[C@H]3C2)nc2c(N3CCOCC3)nc(-c3c(F)ccc4[nH]ccc34)nc21
37 | < 500 nM | CCn1c(CN2CCN3CCC[C@H]3C2)nc2c(N3CCOCC3)nc(-c3c(F)ccc4[nH]ccc34)nc21
38 | < 500 nM | CCn1c(CN2CCN(CC(F)(F)F)CC2)nc2c(N3CCOCC3)nc(-c3c(F)ccc4[nH]ccc34)nc21
39 | < 500 nM | CCn1c(CN2C[C@@H](C)N(CC(N)=O)[C@@H](C)C2)nc2c(N3CCOCC3)nc(-c3c(F)ccc4[nH]ccc34)nc21
40 | < 500 nM | CCn1c(CN2CCC(N3CCC3=O)CC2)nc2c(N3CCOCC3)nc(-c3cccc4[nH]ccc34)nc21
41 | < 500 nM | CCn1c(CN2CCN3CCC[C@H]3C2)nc2c(N3CCOCC3)nc(-c3cccc4[nH]ccc34)nc21
42 | < 500 nM | CCn1c(CN2CCC(N3CCS(=O)(=O)CC3)CC2)nc2c(N3CCOCC3)nc(-c3c(F)ccc4[nH]ccc34)nc21
43 | < 500 nM | Cn1c(CN2CCN(C(C)(C)C(N)=O)CC2)nc2c(N3CCOCC3)nc(-c3c(F)ccc4[nH]ccc34)nc21
44 | < 500 nM | CCn1c(CN2CCC(C(N)=O)(N3CCOCC3)CC2)nc2c(N3CCOCC3)nc(-c3cccc4[nH]ccc34)nc21
45 | < 500 nM | CC(C)(C(N)=O)N1CCN(Cc2nc3c(N4CCOCC4)nc(-c4c(F)ccc5[nH]ccc45)nc3n2CCO)CC1
46 | < 500 nM | CCn1c(CN2CCC(C(N)=O)CC2)nc2c(N3CCOCC3)nc(-c3c(F)ccc4[nH]ccc34)nc21
47 | < 500 nM | c1cc(-c2nc(N3CCOCC3)c3nc(CN4CCN5CCOC[C@H]5C4)[nH]c3n2)c2cc[nH]c2c1
48 | < 500 nM | CCn1c(CN2CCC(N(C)S(C)(=O)=O)CC2)nc2c(N3CCOCC3)nc(-c3cccc4[nH]ccc34)nc21
49 | < 500 nM | CCn1c(CN2CCC3(CCNC3=O)CC2)nc2c(N3CCOCC3)nc(-c3c(F)ccc4[nH]ccc34)nc21
50 | < 500 nM | CCn1c(CN2CC(N(C)C(C)(C)C(N)=O)C2)nc2c(N3CCOCC3)nc(-c3c(F)ccc4[nH]ccc34)nc21
51 | < 500 nM | CC(C)(C(N)=O)N1CCN(Cc2nc3c(N4CCOCC4)nc(-c4c(F)ccc5[nH]ccc45)nc3[nH]2)CC1
52 | < 500 nM | CCn1c(CN2CCN(CC(N)=O)[C@@H](C(C)C)C2)nc2c(N3CCOCC3)nc(-c3c(F)ccc4[nH]ccc34)nc21
53 | < 500 nM | CCn1c(CN2CCC3(CC2)CNC(=O)CO3)nc2c(N3CCOCC3)nc(-c3cccc4[nH]ccc34)nc21
54 | < 500 nM | CCn1c(CN2CCC(N(C)S(C)(=O)=O)CC2)nc2c(N3CCOCC3)nc(-c3c(F)ccc4[nH]ccc34)nc21

Row | IC50 | Compound
55 | < 500 nM | CCn1c(CN2CCN(C(C)C)C(=O)C2)nc2c(N3CCOCC3)nc(-c3c(F)ccc4[nH]ccc34)nc21
56 | < 500 nM | CCn1c(CN2CCC(N3CCCCC3=O)CC2)nc2c(N3CCOCC3)nc(-c3c(F)ccc4[nH]ccc34)nc21
57 | < 500 nM | CCn1c(CN2CCC(c3cc[nH]n3)CC2)nc2c(N3CCOCC3)nc(-c3c(F)ccc4[nH]ccc34)nc21
58 | < 500 nM | CCn1c(CN2CCC(n3cccn3)CC2)nc2c(N3CCOCC3)nc(-c3cccc4[nH]ccc34)nc21
59 | < 500 nM | CCn1c(CN2CCC(n3cccn3)CC2)nc2c(N3CCOCC3)nc(-c3c(F)ccc4[nH]ccc34)nc21
60 | < 500 nM | CCn1c(CN2CC(NC(C)(C)C(N)=O)C2)nc2c(N3CCOCC3)nc(-c3c(F)ccc4[nH]ccc34)nc21
61 | < 500 nM | CCn1c(CN2CCC3(CCNC3=O)CC2)nc2c(N3CCOCC3)nc(-c3cccc4[nH]ccc34)nc21
62 | < 500 nM | CN(C)C1CCN(Cc2nc3c(N4CCOCC4)nc(-c4c(F)ccc5[nH]ccc45)nc3[nH]2)CC1
63 | < 500 nM | CCn1c(CN2CCC3(CC2)CNC(=O)C3)nc2c(N3CCOCC3)nc(-c3cccc4[nH]ccc34)nc21
64 | < 500 nM | CCn1c(CN2CCN(C3CCOCC3)CC2)nc2c(N3CCOCC3)nc(-c3cccc4[nH]ccc34)nc21
65 | < 500 nM | CCn1c(CN2CCC(C)(C(N)=O)CC2)nc2c(N3CCOCC3)nc(-c3c(F)ccc4[nH]ccc34)nc21
66 | < 500 nM | CCn1c(CN2CCC(N3CCOCC3=O)CC2)nc2c(N3CCOCC3)nc(-c3c(F)ccc4[nH]ccc34)nc21
67 | < 500 nM | CCn1c(CN2CC[C@H](NC(C)(C)C(N)=O)C2)nc2c(N3CCOCC3)nc(-c3c(F)ccc4[nH]ccc34)nc21
68 | < 500 nM | CCn1c(CN2CCN3CCOC[C@H]3C2)nc2c(N3CCOCC3)nc(-c3c(F)ccc4[nH]ccc34)nc21
69 | < 500 nM | CCn1c(CN2CCN(C3CCS(=O)(=O)CC3)CC2)nc2c(N3CCOCC3)nc(-c3c(F)ccc4[nH]ccc34)nc21
70 | < 500 nM | CCn1c(CN2CCC(N3CCOCC3=O)CC2)nc2c(N3CCOCC3)nc(-c3cccc4[nH]ccc34)nc21
71 | < 500 nM | CCn1c(CN2CCC(N3CCS(=O)(=O)CC3)CC2)nc2c(N3CCOCC3)nc(-c3cccc4[nH]ccc34)nc21
72 | < 500 nM | CCn1c(CN2CCC(N3CCCC3=O)CC2)nc2c(N3CCOCC3)nc(-c3c(F)ccc4[nH]ccc34)nc21
73 | < 500 nM | CCn1c(CN2CCN(CC(N)=O)C(C)(C)C2)nc2c(N3CCOCC3)nc(-c3c(F)ccc4[nH]ccc34)nc21
74 | < 500 nM | CCn1c(CN2CCC(N3CCCCC3=O)CC2)nc2c(N3CCOCC3)nc(-c3cccc4[nH]ccc34)nc21
75 | < 500 nM | CCn1c(CN2CC(N(C)C(C)(C)C(N)=O)C2)nc2c(N3CCOCC3)nc(-c3cccc4[nH]ccc34)nc21
76 | < 500 nM | CCn1c(CN2CCN3CCOC[C@H]3C2)nc2c(N3CCOCC3)nc(-c3cccc4[nH]ccc34)nc21
77 | < 500 nM | CCn1c(CN2CC(N3CCOCC3)C2)nc2c(N3CCOCC3)nc(-c3c(F)ccc4[nH]ccc34)nc21
78 | < 500 nM | CCn1c(CN2CCC(N3CCOCC3)CC2)nc2c(N3CCOCC3)nc(-c3cccc4[nH]ccc34)nc21
79 | < 500 nM | CCn1c(CN2CCC(N3CCOC3=O)CC2)nc2c(N3CCOCC3)nc(-c3c(F)ccc4[nH]ccc34)nc21
80 | < 500 nM | CCn1c(CN2CCC(N3CCCC3=O)CC2)nc2c(N3CCOCC3)nc(-c3cccc4[nH]ccc34)nc21

— the Kinase Knowledgebase extract (Sharma et al. 2016)
